Reference: patent US6841567B1, “Cyclic substituted fused pyrrolocarbazoles and isoindolones” (Cephalon, Inc., priority 1999, dated 2005)

Columns and labels:
[1] = system: protein kinase C (UBI; mixed isozymes of a, b, g); experiment: Inhibition of protein kinase C activity (Millipore Multiscreen TCA in-plate assay); type: biochemical; settings: for Protein kinase C activity, values in parentheses: concentration not given
Protocol: Protein kinase C activity was assessed using the Millipore Multiscreen TCA “in-plate” assay as described in Pitt, A. M. and Lee, C. (J. Biomol. Screening, 1: 47-51, 1996). Assays were performed in 96-well Multiscreen-DP plates (Millipore). Each […] assay mixture contained 20 mM Hepes, pH 7.4, 10 mM MgCl2, 2.5 mM EGTA, 2.5 mM CaCl2, […] phosphatidyl serine, […] diolein, […] histone H-1 (Fluka), […] [γ-^32P]ATP, 1.5 ng protein kinase C (UBI; mixed isozymes of a, b, g), 0.1% BSA, 2% DMSO, and test cyclic substituted fused pyrrolocarbazole compound. The reaction was allowed to proceed for 10 min at 37° C., then quenched by adding ice cold 50% trichloroacetic acid. The plates were allowed to equilibrate for 30 min at 4° C., then washed with ice cold 25% TCA. Scintillation cocktail was added to the plates, and the radioactivity was determined using Wallac MicroBeta 1450 PLUS scintillation counter. The IC50 values were calculated by fitting the data to the sigmoidal dose-response (variable slope) equation in GraphPad Prism.

[2] = biological target: T1, baculovirus-expressed human trkA cytoplasmic domain (Homo sapiens, UniProt P04629); experiment: Inhibition of trkA tyrosine kinase activity (ELISA-based assay); type: biochemical; settings: for trkA kinase activity % Inh. @ 300 nM (values in parentheses) / inhibition at 0.3 µM: 300 nM compound; for inhibition at 0.3 µM: read-out: trkA kinase activity % Inh. @ 300 nM (values in parentheses); for IC50: 40 μM ATP
T1 construct: baculovirus-expressed human trkA cytoplasmic domain; made in house; host or cells: baculovirus expression system
Protocol: Selected cyclic substituted fused pyrrolocarbazole and isoindolone compounds were tested for their ability to inhibit the kinase activity of baculovirus-expressed human trkA cytoplasmic domain using an ELISA-based assay as previously described (Angeles et al., Anal. Biochem. 236: 49-55, 1996). Briefly, the 96-well microtiter plate was coated with substrate solution (recombinant human phospholipase C-γ1/glutathione S-transferase fusion protein (Rotin et al., EMBO J., 11: 559-567, 1992). Inhibition studies were performed in 100 μl assay mixtures containing 50 mM Hepes, pH 7.4, 40 μM ATP, 10 mM MnCl2, 0.1% BSA, 2% DMSO, and various concentrations of inhibitor. The reaction was initiated by addition of trkA kinase and allowed to proceed for 15 minutes at 37° C. An antibody to phosphotyrosine (UBI) was then added, followed by a secondary enzyme-conjugated antibody, alkaline phosphatase-labelled goat antII-mouse IgG (Bio-Rad). The activity of the bound enzyme was measured via an amplified detection system (Gibco-BRL). Inhibition data were analyzed using the sigimoidal dose-response (variable slope) equation in GraphPad Prism.

[3] = biological target: T2, VEGF receptor (human flk-1, KDR, VEGFR2) kinase domain (Homo sapiens, UniProt P35968); experiment: Inhibition of vascular endothelial growth factor receptor kinase activity (ELISA); type: biochemical; settings: for IC50: 40 μM ATP; for VEGF receptor kinase activity % Inh. @ 300 nM (values in parentheses) / inhibition at 0.3 µM: 300 nM compound; for inhibition at 0.3 µM: read-out: VEGF receptor kinase activity % Inh. @ 300 nM (values in parentheses)
T2 construct: VEGF receptor (human flk-1, KDR, VEGFR2) kinase domain; made in house; host or cells: baculovirus expression system
Protocol: Cyclic substituted fused pyrrolocarbazole and isoindolone compounds were examined for their inhibitory effects on the kinase activity of baculovirus-expressed VEGF receptor (human flk-1, KDR, VEGFR2) kinase domain using the procedure described for the trkA kinase ELISA assay described above. The kinase reaction mixture, consisting of 50 mM Hepes, pH 7.4, 40 μM ATP, 10 mM MnCl2, 0.1% BSA, 2% DMSO, and various concentrations of inhibitor, was transferred to PLC-γ/GST-coated plates. VEGFR kinase was added and the reaction was allowed to proceed for 15 min. at 37 C. Detection of phosphorylated product was accomplished by addition of antII-phosphotyrosine antibody (UBI). A secondary enzymeconjugated antibody was delivered to capture the antibody-phosphorylated PLC-γ/GST complex. The activity of the bound enzyme was measured via an amplified detection system (Gibco-BRL). Inhibition data were analyzed using the sigmoidal dose-response (variable slope) equation in GraphPad Prism.

[4] = biological target: T3, trkA (NIH3T3 cells transfected with trkA) (Homo sapiens, UniProt P04629); experiment: Inhibition of NGF-stimulated trk phosphorylation in a whole cell preparation; type: cell-based; design: key to Cell Score @ 100 nM (percent decrease in trk protein band): 0=no decrease; 1=1-25%; 2=26-49%; 3=50-75%; 4=76-100%; settings: NGF 10 ng/ml; for Cell Score @ 100 nM (percent decrease in trk protein band): 100 nM compound; for Cell Score @ 1 uM (percent decrease in trk protein band): 1 uM compound
T3 construct: expressed in transfected cells; host or cells: NIH3T3
Protocol: NIH3T3 cells transfected with trkA were grown in 100 mm dishes. Subconfluent cells were serum-starved by replacing media with serum-free 0.05% BSA-DMEM containing compound (100 nM and 1 μM) or DMSO (added to controls) for one hour at 37° C. NGF (Harlan/Bioproducts for Science) was then added to the cells at a concentration of 10 ng/ml for 5 minutes. Cells were lysed in buffer containing detergent and protease inhibitors. Clarified cell lysates were normalized to protein using BCA method and immunoprecipitated with antII-trk antibody. Polyclonal antII-trk antibody was prepared against a peptide corresponding to the 14 amino acids at the carboxy terminus of trk (Martin-Zanca et al., Mol. Cell. Biol. 9: 24-33, 1989). The immune complexes were collected on Protein A Sepharose beads (Sigma Chem. Co., St. Lois, Mo.), separated by SDS polyacrylamide gel electrophoresis (SDS-PAGE), and transferred to a polyvinylidene difluoride (PVDF) membrane. The membrane was immunoblotted with antII-phosphotyrosine antibody (UBI), followed by incubation with horseradish peroxidase coupled goat antII-mouse IgG (Bio-Rad Laboratories, Hercules, Calif.). Phosphorylated proteins were visualized using ECL (Arnersham Life Science, Inc., Arlington Heights, Ill.). The area of the trk protein band was measured and compared to NGF-stimulated control. The inhibition scoring system used, based on percent decrease in trk protein band, was as follows: 0=no decrease; 1=1-25%; 2=26-49%; 3=50-75%; 4=76-100%.

T1 sequence (P04629 440-796 limits assumed): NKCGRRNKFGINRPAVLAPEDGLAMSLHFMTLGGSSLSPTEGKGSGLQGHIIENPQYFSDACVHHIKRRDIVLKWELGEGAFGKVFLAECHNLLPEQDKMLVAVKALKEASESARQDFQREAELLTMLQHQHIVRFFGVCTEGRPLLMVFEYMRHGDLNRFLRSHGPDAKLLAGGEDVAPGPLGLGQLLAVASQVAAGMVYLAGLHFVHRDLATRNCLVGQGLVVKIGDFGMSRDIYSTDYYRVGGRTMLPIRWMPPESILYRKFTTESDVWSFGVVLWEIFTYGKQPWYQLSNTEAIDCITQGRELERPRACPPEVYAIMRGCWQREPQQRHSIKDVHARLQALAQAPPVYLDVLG
T3 sequence (P04629 33-796, species assumed): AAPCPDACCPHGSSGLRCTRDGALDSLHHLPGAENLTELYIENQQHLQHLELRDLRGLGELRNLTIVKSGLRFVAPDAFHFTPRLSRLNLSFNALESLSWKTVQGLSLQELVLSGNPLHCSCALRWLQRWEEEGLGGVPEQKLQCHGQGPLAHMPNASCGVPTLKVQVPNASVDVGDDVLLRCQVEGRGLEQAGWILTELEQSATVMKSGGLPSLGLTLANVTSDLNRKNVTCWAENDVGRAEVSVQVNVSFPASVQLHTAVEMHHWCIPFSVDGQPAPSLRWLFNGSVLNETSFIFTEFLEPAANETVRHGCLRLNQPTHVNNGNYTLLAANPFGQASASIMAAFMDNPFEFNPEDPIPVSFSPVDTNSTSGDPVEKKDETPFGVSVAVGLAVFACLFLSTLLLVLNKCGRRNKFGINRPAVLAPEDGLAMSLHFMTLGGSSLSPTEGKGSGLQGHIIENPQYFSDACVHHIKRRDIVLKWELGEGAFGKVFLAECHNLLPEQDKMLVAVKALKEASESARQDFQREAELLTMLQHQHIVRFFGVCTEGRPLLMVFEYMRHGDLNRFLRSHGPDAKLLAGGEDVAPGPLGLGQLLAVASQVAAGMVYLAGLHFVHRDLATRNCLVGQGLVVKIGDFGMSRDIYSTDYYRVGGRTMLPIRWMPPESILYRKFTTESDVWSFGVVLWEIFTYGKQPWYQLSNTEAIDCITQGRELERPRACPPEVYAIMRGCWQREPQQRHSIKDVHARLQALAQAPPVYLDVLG
T2 sequence (P35968 834-1162 limits assumed): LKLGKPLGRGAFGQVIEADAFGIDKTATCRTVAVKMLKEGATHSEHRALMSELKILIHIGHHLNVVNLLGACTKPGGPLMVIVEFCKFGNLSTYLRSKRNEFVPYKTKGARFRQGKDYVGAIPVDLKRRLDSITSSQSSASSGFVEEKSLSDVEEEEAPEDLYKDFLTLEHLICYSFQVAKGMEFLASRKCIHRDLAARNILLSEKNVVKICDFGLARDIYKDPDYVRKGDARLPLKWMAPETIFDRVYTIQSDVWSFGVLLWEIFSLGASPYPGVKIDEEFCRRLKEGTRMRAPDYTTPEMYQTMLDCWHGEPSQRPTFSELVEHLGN

Structure (SMILES): O=C1NCc2c1c1c(c3c2c2ccccc2n3CC2CCCCO2)Cc2ccccc2-1 (racemic) [II-62]
- Protein kinase C activity, values in parentheses [1]: (27)
- trkA kinase activity % Inh. @ 300 nM (values in parentheses) [2]: (27) %

Structure (SMILES): O=C1NCc2c1c1c(c3[nH]c4ccccc4c23)C(C2(O)CCSCC2)c2ccccc2-1 (centres unmarked) [II-14]
- IC50 [1]: > 10000 nM
- inhibition at 0.3 µM [2]: 32%

Structure (SMILES): CCOC1CCC(C2c3ccccc3-c3c4c(c5c([nH]c6ccccc65)c32)CNC4=O)O1 (centres unmarked) [II-40b]
- IC50 [3]: 1420 nM
- IC50 [2]: 59 nM

Structure (SMILES): O=C1NCc2c1c1c(c3[nH]c4ccccc4c23)C(C2CCCO2)c2ccccc2-1 (centres unmarked) [II-07]
- IC50 [1]: 7120 nM
- Cell Score @ 100 nM (percent decrease in trk protein band) [4]: 1 (1=1-25%)
- Cell Score @ 1 uM (percent decrease in trk protein band) [4]: 2 (2=26-49%)
- IC50 [2]: 19 nM

Structure (SMILES): O=C1NCc2c1c1c(c3c2c2cc(Br)ccc2n3CC2CO2)Cc2ccccc2-1 (racemic) [II-57]
- IC50 [3]: 380 nM

Structure (SMILES): CC1(C2c3ccccc3-c3c4c(c5c([nH]c6ccccc65)c32)CNC4=O)CCCO1 (racemic) [II-04]
- IC50 [1]: > 10000 nM
- Cell Score @ 100 nM (percent decrease in trk protein band) [4]: 1 (1=1-25%)
- Cell Score @ 1 uM (percent decrease in trk protein band) [4]: 2 (2=26-49%)
- IC50 [2]: 8 nM

Structure (SMILES): CCOC1COCC(C)(C2c3ccccc3-c3c4c(c5c([nH]c6ccccc65)c32)CNC4=O)O1 (single isomer, unassigned) [II-51d]
- VEGF receptor kinase activity % Inh. @ 300 nM (values in parentheses) ([3]; 0.3 µM): (48) %
- trkA kinase activity % Inh. @ 300 nM (values in parentheses) ([2]; 0.3 µM): (58) %

Structure (SMILES): O=C1NCc2c1c1c(c3[nH]c4ccccc4c23)C(C2(C(O)CO)CCCO2)c2ccccc2-1 (centres unmarked) [II-29]
- IC50 [1]: 2080 nM
- Cell Score @ 100 nM (percent decrease in trk protein band) [4]: 0
- Cell Score @ 1 uM (percent decrease in trk protein band) [4]: 4 (4=76-100%)
- IC50 [2]: 16 nM

Structure (SMILES): CCOC1CCC(CO)(C2c3cc(OC)ccc3-c3c4c(c5c([nH]c6ccccc65)c32)CNC4=O)O1 (single isomer, unassigned) [II-54]
- IC50 [3]: 122 nM
- Cell Score @ 100 nM (percent decrease in trk protein band) [4]: 2 (2=26-49%)
- Cell Score @ 1 uM (percent decrease in trk protein band) [4]: 4 (4=76-100%)
- IC50 [2]: 59 nM

Structure (SMILES): O=C1CCC(CO)(C2c3ccccc3-c3c4c(c5c([nH]c6ccccc65)c32)CNC4=O)O1 (centres unmarked) [II-33]
- IC50 [1]: 1040 nM
- IC50 [2]: 153 nM

Structure (SMILES): CCC1(C2(CO)CCCO2)c2ccccc2-c2c3c(c4c([nH]c5ccccc54)c21)CNC3=O (mixture of isomers) [II-34]
- VEGF receptor kinase activity % Inh. @ 300 nM (values in parentheses) [3]: (52) %
- trkA kinase activity % Inh. @ 300 nM (values in parentheses) [2]: (38) %

Structure (SMILES): O=C1NCc2c1c1c(c3[nH]c4ccccc4c23)C(C2(O)CCc3ccccc3C2)c2ccccc2-1 (centres unmarked) [II-15]
- IC50 [1]: > 10000 nM
- inhibition at 0.3 µM [2]: 26%

Structure (SMILES): O=C1NCc2c1c1c(c3[nH]c4ccccc4c23)C(C2(CO)CCCO2)c2ccccc2-1 (centres unmarked) [II-21]
- IC50 [1]: > 10000 nM
- Cell Score @ 100 nM (percent decrease in trk protein band) [4]: 2 (2=26-49%)
- Cell Score @ 1 uM (percent decrease in trk protein band) [4]: 4 (4=76-100%)
- IC50 [2]: 15 nM

Structure (SMILES): O=C1NCc2c1c1c(c3[nH]c4ccccc4c23)C(C2(CCCCl)CCCO2)c2ccccc2-1 (centres unmarked) [II-19]
- inhibition at 0.3 µM [3]: 46%
- IC50 [2]: 162 nM

Structure (SMILES): O=C1NCc2c1c1c(c3[nH]c4ccccc4c23)C(C2(CCl)CCCO2)c2ccccc2-1 (centres unmarked) [II-44]
- IC50 [3]: > 1000 nM
- IC50 [2]: 80 nM

Structure (SMILES): O=C1CCC(C2c3ccccc3-c3c4c(c5c([nH]c6ccccc65)c32)CNC4=O)O1 (centres unmarked) [II-06]
- inhibition at 0.3 µM [3]: 56%
- Cell Score @ 100 nM (percent decrease in trk protein band) [4]: 1 (1=1-25%)
- Cell Score @ 1 uM (percent decrease in trk protein band) [4]: 2 (2=26-49%)
- IC50 [2]: 90 nM

Structure (SMILES): O=C1NCc2c1c1c(c3c2c2ccccc2n3CC2CCCOC2)Cc2ccccc2-1 (racemic) [II-63]
- Protein kinase C activity, values in parentheses [1]: (28)
- trkA kinase activity % Inh. @ 300 nM (values in parentheses) [2]: (28) %

Structure (SMILES): O=C1NCc2c1c1c(c3[nH]c4ccccc4c23)C(C2(O)CCN(Cc3ccccc3)CC2)c2ccccc2-1 (centres unmarked) [II-02]
- IC50 [1]: 7500 nM
- IC50 [2]: 64 nM

Structure (SMILES): CCOC1COCC(C)(C2c3ccccc3-c3c4c(c5c([nH]c6ccccc65)c32)CNC4=O)O1 (mixture of isomers) [II-51bc]
- VEGF receptor kinase activity % Inh. @ 300 nM (values in parentheses) ([3]; 0.3 µM): (62) %
- trkA kinase activity % Inh. @ 300 nM (values in parentheses) ([2]; 0.3 µM): (56) %

Structure (SMILES): O=C1NCc2c1c1c(c3c2c2ccccc2n3C[C@H]2CO2)Cc2ccccc2-1 [II-01c]
- IC50 [3]: 168 nM
- IC50 [2]: 163 nM

Structure (SMILES): O=C1NCc2c1c1c(c3[nH]c4ccccc4c23)C(C2CCOC2=O)c2ccccc2-1 (single isomer, unassigned) [II-60]
- VEGF receptor kinase activity % Inh. @ 300 nM (values in parentheses) [3]: (45) %

Structure (SMILES): CN1CCC(O)(C2c3ccccc3-c3c4c(c5c([nH]c6ccccc65)c32)CNC4=O)CC1 (centres unmarked) [II-10]
- IC50 [1]: 1570 nM
- IC50 [2]: 182 nM

Structure (SMILES): COCCOCc1ccc2c(c1)c1c3c(c4c(c1n2CC1CO1)Cc1ccccc1-4)C(=O)NC3 (racemic) [II-61]
- IC50 [1]: 1360 nM

Structure (SMILES): CCOC1COCC(C)(C2c3ccccc3-c3c4c(c5c([nH]c6ccccc65)c32)CNC4=O)O1 (centres unmarked) [II-51a]
- IC50 [3]: 170 nM
- inhibition at 0.3 µM [2]: 56%

Structure (SMILES): O=C1NCc2c1c1c(c3c2c2ccccc2n3C[C@@H]2CO2)Cc2ccccc2-1 [II-01b]
- IC50 [3]: 266 nM

Structure (SMILES): CC1(C2c3ccccc3-c3c4c(c5c([nH]c6ccccc65)c32)CNC4=O)CCCO1 (single isomer, unassigned) [II-30a]
- inhibition at 0.3 µM [3]: 59%
- IC50 [2]: 214 nM

Structure (SMILES): O=C1NCc2c1c1c(c3[nH]c4ccccc4c23)C(C2(O)CCOCC2)c2ccccc2-1 (centres unmarked) [II-03]
- IC50 [1]: 4070 nM
- IC50 [2]: 72 nM
